# Measurements taken from patent US10654816B2, “Compounds and compositions for treating conditions associated with NLRP activity” (NOVARTIS INFLAMMASOME RESEARCH, INC., priority 2017, dated 2020).
# Test system: IL-1β production in PMA-differentiated THP-1 cells
# Assay: IL-1β production in PMA-differentiated THP-1 cells stimulated with gramicidin (hTHP-1 assay, HTRF readout; Procedures 1-3)
# Assay type: cell-based, human
# Conditions: Homo sapiens, THP-1, hTHP-1 assay containing 2% fetal bovine serum; average; class symbols; read-out: hTHP-1 IC50 (Average IC50 of compounds in hTHP-1 assay)
# In short: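 PMA-differentiated (20 ng/ml, 16-18 h) THP-1 cells in RPMI with 2% FBS, 50,000 cells/well, preincubated 1 h with compound (final 0.0017-100 μM, 0.37% DMSO), then stimulated with 5 μM gramicidin for 2 h. IL-1β in cell-free supernatant measured by HTRF (620/668 nm).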
row,Structure (SMILES),IC50 [nM]
1,"CC(C)c1cc(F)cc(C(C)C)c1NC(=O)N=S(N)(=O)c1cccc2c(N(C)C)cccc12 (stereo not drawn) [Example 431, 1-{amino[5-(dimethylamino)naphthalen-1-yl]oxo-λ^6-sulfanylidene}-3-[4-fluoro-2,6-bis(propan-2-yl)phenyl]urea]",5000 to 30000
2,"Cc1oc(S(N)(=O)=NC(=O)Nc2c(C(C)C)cc(F)cc2C(C)C)cc1C(C)(C)O (stereo not drawn) [Example 10, N′-(4-fluoro-2,6-diisopropylphenylcarbamoyl)-4-(2-hydroxypropan-2-yl)-5-methylfuran-2-sulfonimidamide]",40 to 200
3,"C#CCCC(=O)N(C)Cc1ccc(S(N)(=O)=NC(=O)Nc2c3c(cc4c2CCC4)CCC3)cc1 (single isomer, unassigned) [Example 312, (S) or (R)-N-(4-(N′-((1,2,3,5,6,7-hexahydro-s-indacen-4-yl)carbamoyl)sulfamid-imidoyl)benzyl)-N-methylpent-4-ynamide]",1000 to 5000
4,"CC(C)c1cc(F)cc(C(C)C)c1NC(=O)N=S(N)(=O)c1ccc(C(C)(C)O)cc1 (stereo not drawn) [Example 11, N′-(4-fluoro-2,6-diisopropylphenylcarbamoyl)-4-(2-hydroxypropan-2-yl)benzenesulfonimidamide]",5000 to 30000
5,"CC(C)c1nn(-c2ccccc2)c(C(C)C)c1NC(=O)N=S(N)(=O)c1cc(C(C)(C)O)cs1 (stereo not drawn) [Example 284, N′-((3,5-diisopropyl-1-phenyl-1H-pyrazol-4-yl)carbamoyl)-4-(2-hydroxypropan-2-yl)thiophene-2-sulfonimidamide]",5000 to 30000
6,"CC(C)c1cc(C#N)cc(C(C)C)c1NC(=O)N=S(N)(=O)c1sc(C(C)(C)O)cc1F (stereo not drawn) [Example 65, N′-((4-cyano-2,6-diisopropylphenyl)carbaoyl)-3-fluoro-5-(2-hydroxypropan-2-yl)thiophene-2-sulfonimidamide]",40 to 200
7,"CC(C)(O)c1ncc(S(N)(=O)=NC(=O)Nc2c3c(cc4c2CCC4O)CCC3)s1 (single isomer, unassigned) [Example 337, (R, R) or (R, S)-N′-((l-hydroxy-1,2,3,5,6,7-hexahydro-s-indacen-4-yl)carbamoyl)-2-(2-hydroxypropan-2-yl)thiazole-5-sulfonimidamide]",1000 to 5000
8,COC(=O)CCC(=O)N(C)Cc1ccc(S(N)(=O)=NC(=O)Nc2c3c(cc4c2CCC4)CCC3)cc1 (stereo not drawn) [Example 251],1000 to 5000
9,CC(C)c1cc(OC(F)F)cc(C2CC2)c1NC(=O)N=S(N)(=O)c1ccc(C(C)(C)O)cc1F (stereo not drawn) [Example 54],1000 to 5000
10,"CC(C)c1cc(F)cc(C(C)C)c1NC(=O)N=S(N)(=O)c1cnc2c(cnn2C)c1 (stereo not drawn) [Example 430, 3-[amino({1-methyl-1H-pyrazolo[3,4-b]pyridin-5-yl})oxo-λ^6-sulfanylidene]-1-[4-fluoro-2,6-bis(propan-2-yl)phenyl]urea]",5000 to 30000
11,"NS(=O)(=NC(=O)Nc1c2c(c(F)c3c1CCC3)CCC2)c1ccc(O)cc1F (stereo not drawn) [Example 229, 2-Fluoro-N′-(8-fluoro-1,2,3,5,6,7-hexahydro-s-indacen-4-ylcarbamoyl)-4-hydroxybenzenesulfonimidamide]",1000 to 5000
12,"CC(C)c1cc(F)cc(C(C)C)c1NC(=O)N=S(N)(=O)c1cc(C(C)(C)O)cs1 (stereo not drawn) [Example 40, N′-(4-fluoro-2,6-diisopropylphenylcarbamoyl)-4-(2-hydroxypropan-2-yl)thiophene-2-sulfonimidamide]",40 to 200
13,"CC(C)c1cc(C#N)cc(C(C)C)c1NC(=O)N=S(N)(=O)c1cc(C(C)(C)O)cc(C(C)(C)O)c1 (single isomer, unassigned) [Example 198, N′-((4-cyano-2,6-diisopropylphenyl)carbamoyl)-3,5-bis-(2-hydroxypropan-2-yl)benzenesulfonimidamide]",5000 to 30000

# Further lines, results first:
row,IC50 [nM],Structure (SMILES)
1,1000 to 5000,"CC(C)Cc1ccc(S(N)(=O)=NC(=O)Nc2c3c(cc4c2CCC4)CCC3)cn1 (stereo not drawn) [Example 275, N′-(1,2,3,5,6,7-hexahydro-s-indacen-4-ylcarbamoyl)-6-isobutylpyridine-3-sulfonimidamide]"
2,1000 to 5000,"CC(=O)N(C)Cc1ccc(S(N)(=O)=NC(=O)Nc2c3c(cc4c2CCC4)CCC3)cc1 (stereo not drawn) [Example 268, N-(4-(N′-(1,2,3,5,6,7-hexahydro-s-indacen-4-ylcarbamoyl)sulfamimidoyl)benzyl)-N-methylacetamide]"
3,8 to 40,"CC(C)(O)c1ncc(S(N)(=O)=NC(=O)Nc2c3c(cc4c2CC4)CC3)s1 (stereo not drawn) [Example 226, 2-(2-Hydroxypropan-2-yl)-N′-(tricyclo[6.2.0.03,6]deca-1,3(6),7-trien-2-ylcarbamoyl)thiazole-5-sulfonimidamide]"
4,1000 to 5000,"C=CCN(C)Cc1ccc(S(N)(=O)=NC(=O)Nc2c3c(cc4c2CCC4)CCC3)cc1 (stereo not drawn) [Example 238, 4-((Allyl(methyl)amino)methyl)-N′-(1,2,3,5,6,7-hexahydro-s-indacen-4-ylcarbamoyl)benzenesulfonimidamide]"
5,200 to 1000,"CC(C)(O)c1cc(S(N)(=O)=NC(=O)Nc2c3c(cc4c2CCC4)CCC3)nn1-c1ccccc1 (stereo not drawn) [Example 259, N′-((1,2,3,5,6,7-hexahydro-s-indacen-4-yl)carbamoyl)-5-(2-hydroxypropan-2-yl)-1-phenyl-1H-pyrazole-3-sulfonimidamide]"
6,8 to 40,"Cc1oc(S(N)(=O)=NC(=O)Nc2c3c(cc4c2CCC4)CCC3)cc1C(C)(C)O (stereo not drawn) [Example 1, N′-(1,2,3,5,6,7-hexahydro-s-indacen-4-ylcarbamoyl)-4-(2-hydroxypropan-2-yl)-5-methylfuran-2-sulfonimidamide]"
7,200 to 1000,"CN(C)Cc1ccc(S(N)(=O)=NC(=O)Nc2c3c(cc4c2CCC4)CCC3)cc1F (stereo not drawn) [Example 280, 4-((dimethylamino)methyl)-3-fluoro-N′-((1,2,3,5,6,7-hexahydro-s-indacen-4-yl)carbamoyl)benzenesulfonimidamide]"
8,1000 to 5000,"COCc1ccc(S(N)(=O)=NC(=O)Nc2c3c(cc4c2CCC4)CCC3)cc1 (stereo not drawn) [Example 242, N′-(1,2,3,5,6,7-hexahydro-s-indacen-4-ylcarbamoyl)-4-(methoxymethyl)benzenesulfonimidamide]"
10,40 to 200,"Cc1sc(S(N)(=O)=NC(=O)Nc2c3c(cc4c2CCC4)CCC3)nc1C(C)(C)O (stereo not drawn) [Example 265, N′-(1,2,3,5,6,7-hexahydro-s-indacen-4-ylcarbamoyl)-4-(2-hydroxypropan-2-yl)-5-methylthiazole-2-sulfonimidamide]"
11,200 to 1000,"CC(C)(O)c1ccc(F)c(S(N)(=O)=NC(=O)Nc2c3c(c(F)c4c2CCC4)CCC3)c1 (stereo not drawn) [Example 55, 2-fluoro-N′-((8-fluoro-1,2,3,5,6,7-hexahydro-s-indacen-4-yl)carbamoyl)-5-(2-hydroxypropan-2-yl)benzenesulfonimidamide]"
12,5000 to 30000,CN(C)S(=O)(=NC(=O)Nc1c2c(cc3c1CCC3)CCC2)c1cc(C(C)(C)O)cs1 (stereo not drawn) [Example 245]

# Same assay, conditions: Homo sapiens, THP-1, hTHP-1 assay containing 2% fetal bovine serum; average; given as bound; read-out: hTHP-1 IC50 (Average IC50 of compounds in hTHP-1 assay)
row,IC50 [nM],Structure (SMILES)
1,> 30000,"CC(C)c1cc(C#N)cc(C(C)C)c1NC(=O)N=S(N)(=O)c1sc(C(C)(C)O)nc1CO (single isomer, unassigned) [Example 193, (R)- or (S)-N′-((4-cyano-2,6-diisopropylphenyl)carbamoyl)-4-(hydroxymethyl)-2-(2-hydroxypropan-2-yl)thiazole-5-sulfonimidamide]"
2,> 30000,"Cn1ncc2cc(S(N)(=O)=NC(=O)Nc3c4c(cc5c3CCC5)CCC4)ccc21 (single isomer, unassigned) [Example 398, (S) or (R)-N′-((1,2,3,5,6,7-hexahydro-s-indacen-4-yl)carbamoyl)-1-methyl-1H-indazole-5-sulfonimidamide]"
3,> 30000,"CC(C)c1cc(C#N)cc(C(C)C)c1NC(=O)N=S(N)(=O)c1ccc(S(C)(=O)=O)cc1 (single isomer, unassigned) [Example 197, (R)- or (S)-N′-((4-cyano-2,6-diisopropylphenyl)carbamoyl)-4-(methyl-sulfonyl)benzenesulfonimidamide]"

# Same assay, conditions: hTHP-1 assay containing 2% fetal bovine serum; average; class symbols; read-out: hTHP-1 IC50 (Average IC50 of compounds in hTHP-1 assay)
row,IC50 [nM],Structure (SMILES)
1,200 to 1000,"CC(C)(O)c1ncc(S(N)(=O)=NC(=O)Nc2c3c(cc4c2C(O)CC4)CCC3)s1 (single isomer, unassigned) [Example 392, (R, S) or (R, R) or (S, R) or (S, S)-N′-((3-hydroxy- *1,2,3,5,6,7-hexahydro-s-indacen-4-yl)carbamoyl)-2-(2-hydroxypropan-2-yl)thiazole-5-sulfonimidamide]"
2,1000 to 5000,"CC(C)(O)c1ncc([S@@](N)(=O)=NC(=O)Nc2c3c(cc4c2CC4)CCC3)s1 (single isomer, unassigned) [Example 225]"
3,1000 to 5000,"CC(C)(O)c1ncc(S(N)(=O)=NC(=O)Nc2c3c(cc4c2CCC4O)CCC3)s1 (single isomer, unassigned) [Example 338, (R, S) or (R, R)-N′-((1-hydroxy-1,2,3,5,6,7-hexahydro-s-indacen-4-yl)carbamoyl)-2-(2-hydroxypropan-2-yl)thiazole-5-sulfonimidamide]"
4,1000 to 5000,"CC(C)(O)c1ncc(S(N)(=O)=NC(=O)Nc2c3c(cc4c2CCC4O)CCC3)s1 (single isomer, unassigned) [Example 340, (S, R) or (S, S)-N′-((1-hydroxy-1,2,3,5,6,7-hexahydro-s-indacen-4-yl)carbamoyl)-2-(2-hydroxypropan-2-yl)thiazole-5-sulfonimidamide]"
5,200 to 1000,"CC(C)(O)c1ncc(S(N)(=O)=NC(=O)Nc2c3c(cc4c2C(O)CC4)CCC3)s1 (single isomer, unassigned) [Example 391, (R, R) or (R, S) or (S, S) or (S, R)-N′-((3-hydroxy-1,2,3,5,6,7-hexahydro-s-indacen-4-yl)carbamoyl)-2-(2-hydroxypropan-2-yl)thiazole-5-sulfonimidamide]"
